Data from patent US8691281B2, “Solid pharmaceutical composition containing 6-oxo-6,7,8,9,10,11-hexahydrocyclohepta (C)chromen-3-yl sulfamate and polymorphs thereof” (Ipsen Pharma S.A.S., priority 2009, dated 2014).

How the values were obtained:
Type in all cases: physicochemical
[1] = Conversion experiments between the polymorphic forms; conditions: after heating, return to ambient temperature
Experimental: The applicant has carried out conversion experiments between the different polymorphic forms of compound 1 which have shown that form III is the form which is stable at a high temperature (T>145° C.). This significant property makes it possible, by heating under vacuum, to eliminate traces of solvent (Polymorphism in the Pharmaceutical Industry, Wiley 2006, Ed Hilfiker; Wiley, ISBN: 978-3-527-31146-0).

[2] = Chemical stability at 150° C. by HPLC
Experimental: A stability study was carried out at 150° C. between compound 1 of form III and the compound 1 described in patent EP 880514. This chemical stability of compound 1 is studied using HPLC
(§1) The operating conditions of the HPLC method are the following: • column: Interchim UP3HDO-15XS, 150×4.6 mm,
(§2) • detection: 205 nm, • injection: 20 microliters, • temperature: 40° C., • solution injected: 0.5 mg·mL^−1 (acetonitrile)

[3] = Particle size distribution (Malvern Mastersizer S laser granulometer)
Experimental: • Wavelength: 1.54056 Cu, voltage 40 KV, intensity 40 mA • Measurement range: 3°-30°2 theta • Interval: 0.04°2 theta • Duration of the interval: 4s • Fixed slots: 1.6 mm • Kβ filter (Ni) • Without internal reference • EVA software (v 12.0) for data processing Smart Apex Bruker diffractometer, two-dimensional detector • SMART software for determination of the parameters and orientation of the crystal matrix • SAINT software for data integration and processing • WinGX software for determination of the space group and the structural resolution 6.1.2 DSC • Netzsch DSC 204F1 • Aluminium crucible and pierced lid • Atmosphere: Helium • Initial temperature: 20° C. • Final temperature: 200° C. • Temperature gradient: 5° C.·min^−1 6.1.3 IR • KBr pellet • Bruker IFS28 type spectrometer • Spectral range: 400-4000 cm^−1 6.1.4 NMR of the solid • Bruker Avance 500 MHz spectrometer • MAS (Magic Angle Spinning) 4 mm probe • Bruker XwinNMR software • VACP (Variable Amplitude Cross-Polarization) with MAS (11 kHz) and proton decoupling (spinal 64, 65 kHz) • External reference: Adamantane 6.1.5 Particle Size Distribution • Malvern Mastersizer S laser granulometer • Size of the sample: 30 to 50 mg • Dispersion medium: 0.50% (m/v) Nonidet in water • Mie theory with as refractive indices: particle RI=1.55; imaginary RI=1.00; dispersant RI=1.38 • Sonication time: 60 seconds • Sonication energy: 50 to 60 Hz • Recirculation time: 30 seconds at 2000 rpm^−1 • Obscuration: 15-25% 6.2 Characterization of the Examples 6.2.1 Examples 5 and 5b

[4] = Chemical stability at 100° C. by HPLC
Experimental: A stability study was carried out at 100° C. between variety I of compound 1 and the compound 1 described in patent EP 880514. The chemical stability of compound 1 is studied using HPLC with different scores.
as §1, §2

[5] = Biopharmaceutical Classification System (BCS) class
Source text: Compound 1 belongs to Class 2 of the Biopharmaceutical Classification System or BCS proposed by G. Amidon (cf. G. L. Amidon et al., “A theoretical basis for a biopharmaceutical drug classification: the correlation of in vitro drug dissolution and in vivo bioavailability”, Pharm. Res. 12 (1995) 413-420). Its absorption, and therefore its bioavailability, thus strongly depend on the dissolution rate of the pharmaceutical form administered.

Compound	particle size distribution D10(%) [3]	particle size distribution D50(%) [3]	particle size distribution D90(%) [3]	HPLC Purity ([4]; T0)	HPLC Purity ([4]; T1 day at 100° C.)	HPLC Purity ([4]; T2 days at 100° C.)	HPLC Purity ([4]; T3 days at 100° C.)	HPLC Purity ([4]; T7 days at 100° C.)	also measured
NS(=O)(=O)Oc1ccc2c3c(c(=O)oc2c1)CCCCC3 [form III, 6-oxo-6,7,8,9,10,11-hexahydrocyclohepta[c]chromen-3-yl sulphamate]									behaviour of the form on returning to ambient temperature [1]: remains unchanged; HPLC Purity ([2]; T0 (start of stability study at 150° C.), listed as Compound 1 of form III): 99.4%; HPLC Purity ([2]; T2 hours at 150° C., listed as Compound 1 of form III): 41.2%
NS(=O)(=O)Oc1ccc2c3c(c(=O)oc2c1)CCCCC3 [Example 3]	0.6 μm	3.1 μm	13.7 μm						
NS(=O)(=O)Oc1ccc2c3c(c(=O)oc2c1)CCCCC3 [Variety I of compound 1, 6-oxo-6,7,8,9,10,11-hexahydrocyclohepta[c]chromen-3-yl sulphamate]				99.6%	99.6%	99.7%	99.7%	99.7%	
NS(=O)(=O)Oc1ccc2c3c(c(=O)oc2c1)CCCCC3 [Compound 1 Patent EP 880514, 6-oxo-6,7,8,9,10,11-hexahydrocyclohepta[c]chromen-3-yl sulphamate, reference compound]				99.6%	99.1%	98.8%	98.7%	98.0%	HPLC Purity ([2]; T0 (start of stability study at 150° C.)): 99.6%; HPLC Purity ([2]; T2 hours at 150° C.): 7.3%
NS(=O)(=O)Oc1ccc2c3c(c(=O)oc2c1)CCCCC3 [Example 2-2]	1.2 μm	5.2 μm	11.0 μm						
NS(=O)(=O)Oc1ccc2c3c(c(=O)oc2c1)CCCCC3 [Compound 1, 6-oxo-6,7,8,9,10,11-hexahydrocyclohepta[c]chromen-3-yl sulphamate]									Biopharmaceutical Classification System (BCS) class [5]: Class 2
